Laboratory results from patent publication US10471043B2, “Compounds and methods of treating bacterial infections” (ULTUPHARMA AB, priority 2015, dated 2019).
Converted amounts (≈) assume the structure as drawn. Like-named read-outs stand apart in the source and are kept apart here.

Experiments:
[1] = cited from earlier work
S. aureus = assay: Antimicrobial Susceptibility Test by Broth Microdilution, M07-A9 CLSI; type: cell-based; conditions: Staphylococcus aureus
A. baumannii = assay: MIC by broth micro-dilution; type: cell-based; conditions: Acinetobacter baumannii, A. baumannii (G−), Table 2; read-out: MIC (μg/ml) A. baumannii
Experimental: (§1) At first (Table 1), MIC is determined by broth micro-dilution method. The test medium is Antibiotic Medium 3 (AM3; Difco Ltd) mixed with Phosphate Buffered Saline (PBS) in proportions 1:1. Selected MIC values are verified using cation-adjusted Mueller Hinton Broth (MHB; BD). Cell concentration of tested pathogen is adjusted to between 3 and 5×10^5 cells per ml. To verify cell concentration of tested pathogen, viable cell counts are performed directly after each MIC-test by dilution method with PBS as a dilution solvent. Cells are counted on the agar plates with 50% strength Vegetable Peptone Broth (50% VPB; Oxoid Ltd) after 16 to 20 h of incubation at 37° C.
(§2) Cells of pathogen suspended in test medium are distributed to the wells and the plates are incubated for 16 to 20 h at 37° C. Negative controls are wells with the test medium only and positive controls are wells with the pathogen in test medium. The MIC is defined as the lowest concentration of each compound with no visible growth of pathogen.

E. faecium = assay: Antimicrobial Susceptibility Test by Broth Microdilution, M07-A9 CLSI; type: cell-based; conditions: Enterococcus faecium; E. faecium 7, Vancomycin-resistant, Table 5; read-out: MIC
S. epidermidis = assay: as above; type: cell-based; conditions: Staphylococcus epidermidis
E. faecalis = assay: as above; type: cell-based; conditions: Enterococcus faecalis
[2] = test system: Staphylococcus aureus strain LMG15975; assay: MIC by broth micro-dilution, AM3/PBS 1:1; type: cell-based
Experimental: as §1, §2
Example compounds of formula I were examined for antibacterial activity against the Gram-positive bacterium Staphylococcus aureus strain LMG15975 using the above described method (Table 1).

in vitro = conditions: human, CC50 (μg/mL)
[3] = Cytotoxicity assay, WST-8; conditions: human, HepG2 cells, CC50 (μg/mL)
Bacillus cereus = assay: MIC by broth micro-dilution; type: cell-based; conditions: Table 4, read-out: MIC (μg/ml) B. cereus
Experimental: as §1, §2

[4] = Kong et al 2005; cited from earlier work
M. frederiksbergense = assay: MIC by broth micro-dilution; type: cell-based; conditions: Table 4; read-out: MIC (μg/ml) M. frederiksbergense
Experimental: as §1, §2

[5] = test system: mupirocin-resistant strains of Staphylococcus aureus; assay: MIC against mupirocin-resistant strains; type: cell-based; conditions: Staphylococcus aureus; all 4 strains (V55, V86, V308, V321); read-out: MIC values for mupirocin
Experimental: as §1, §2

[6] = reference markers for Caco-2 assay
[7] = ATCC29213, S. aureus ATCC29213, QC strain, Table 5
[8] = S. aureus 7280, Methicillin-resistant
[9] = S. aureus MO17, Methicillin-sensitive, Table 5
[10] = S. aureus PICI, Methicillin-resistant, Table 5
[11] = S. epidermis RO7, Methicillin-sensitive, Table 5
[12] = S. epidermis Staph 1, Methicillin-resistant
[13] = S. epidermis TA12, Methicillin-resistant, Table 5
[14] = E. faecalis 14, Vancomycin-resistant
[15] = E. faecalis 24, Vancomycin-sensitive, Table 5
[16] = LMG15975, S. aureus (G+), Table 2, read-out: MIC (μg/ml) S. aureus
[17] = LMG15975, S. aureus LMG 15975 (SLU), Methicillin-resistant, Table 5, read-out: MIC (μg/mL)
[18] = LMG15975, S. aureus LMG15975, Table 1, read-out: MIC
[19] = LMG15975, S. aureus LMG15975, Table 1, read-out: MIC (μg/ml)

In the case of `Nc1nc2c(ncn2COCCO)c(=O)[nH]1` [Acyclovir], the “absorption in man (%)” value [1, 6] is given as 30%.
With `CCCCCCCCCCCC1CC(O)=C(C(=O)CCC)C(=O)O1` (stereo not shown) [Ex. 16, 3-butyryl-4-hydroxy-6-undecyl-5,6-dihydro-2H-pyran-2-one] the MIC (S. aureus; [7]) was 4 µg/mL (≈ 11.8 µM), the MIC (S. aureus; [8]) was 8 µg/mL (≈ 23.6 µM) and the MIC (S. aureus; [9]) was 4 µg/mL (≈ 11.8 µM). For the same compound, the MIC (S. aureus; [10]) was 4 µg/mL (≈ 11.8 µM), the MIC (A. baumannii) was < 4 µg/mL and the MIC (E. faecium) was 2 µg/mL (≈ 5.91 µM). The MIC (S. epidermidis; [11]) was 0.5 µg/mL (≈ 1.48 µM), the MIC (S. epidermidis; [12]) was 0.5 µg/mL (≈ 1.48 µM) and the MIC (S. epidermidis; [13]) was 1 µg/mL (≈ 2.95 µM). For the same compound, the MIC (E. faecalis; [14]) was 1 µg/mL (≈ 2.95 µM), the MIC (E. faecalis; [15]) was 1 µg/mL (≈ 2.95 µM) and the MIC [2, 16] was 0.1 to 0.2 µg/mL. It also gave an MIC [2, 17] of 0.1 to 0.2 µg/mL, an MIC [2, 18] of 0.3 to 0.6 µM and an MIC [2, 19] of 0.1 to 0.2 µg/mL. For the same compound, the CC50 at 48 h (in vitro) was 19 µM.
`CCCCCCCCCCC1CC(O)=C(C(=O)CCC)C(=O)O1` (stereo not shown) [Ex. 12, 3-butyryl-6-decyl-4-hydroxy-5,6-dihydro-2H-pyran-2-one] gave an MIC (A. baumannii) of 8 to 16 µg/mL (≈ 24.7 to 49.3 µM), a CC50 at 48 h ([3]; HepG2, 48 hours, Table 1) of 25 µM and an MIC [2, 16] of 0.6 to 0.8 µg/mL. For the same compound, the MIC [2, 18] was 1.9 to 2.6 µM and the MIC [2, 19] was 0.6 to 0.8 µg/mL.
In the case of `OC[C@@H](O)[C@@H](O)[C@H](O)[C@H](O)CO` [Mannitol], the “absorption in man (%)” value ([1]; in vivo) is listed as 16%.
Work on `CCCCCCC/C=C/C1CC(O)=C(C(=O)CCC)C(=O)O1` (stereo not shown) [Ex. 4, (E)-3-butyryl-6-(non-1-en-1-yl)-4-hydroxy-5,6-dihydro-2H-pyran-2-one] yielded an MIC [2, 18] of 2.6 to 3.9 µM, an MIC [2, 19] of 0.8 to 1.2 µg/mL and a CC50 at 48 h (in vitro) of 36 µM.
For `CCCCCCCCCC1CC(O)=C(C(=O)CC)C(=O)O1` (stereo not shown) [Ex. 5, 4-hydroxy-6-nonyl-3-propionyl-5,6-dihydro-2H-pyran-2-one], the MIC (A. baumannii) was 32 to 48 µg/mL (≈ 108 to 162 µM), the MIC (Bacillus cereus) was ≤ 1 µg/mL and the CC50 at 48 h ([3]; HepG2, 48 hours, Table 1) was 50 µM. It also gave an MIC [2, 16] of 0.7 µg/mL, an MIC [2, 18] of 2.2 µM and an MIC [2, 19] of 0.65 µg/mL. It also gave an MIC ([2]; LMG15975, Table 4, read-out: MIC (μg/ml) S. aureus) of 0.7 µg/mL.
In the case of `CCCCCCc1c(O)cc(CCCCC)oc1=O` [pseudopyronine A], the antibacterial activities [4] is given as “moderate to poor”.
In the case of `CCCCCCCCCCC1CC(O)=C(C(=O)CC)C(=O)O1` (stereo not shown) [Ex. 10, 6-decyl-4-hydroxy-3-propionyl-5,6-dihydro-2H-pyran-2-one], the MIC (M. frederiksbergense) is reported as ≤ 0.5 µg/mL, the MIC (Bacillus cereus) is reported as ≤ 1 µg/mL and the MIC [2, 18] is reported as 1.3 to 2.6 µM. The MIC [2, 19] was 0.4 to 0.8 µg/mL and the CC50 at 48 h (in vitro) was 60 µM.
Work on `CCCCCCCCC1CC(O)=C(C(=O)CCC)C(=O)O1` (stereo not shown) [Ex. 13, 3-butyryl-4-hydroxy-6-octyl-5,6-dihydro-2H-pyran-2-one] yielded an MIC (A. baumannii) of 24 to 32 µg/mL (≈ 81 to 108 µM), a CC50 at 48 h ([3]; HepG2, 48 hours, Table 1) of 30 µM and an MIC [2, 16] of 0.8 to 1.5 µg/mL. For the same compound, the MIC [2, 18] was 2.7 to 5.1 µM and the MIC [2, 19] was 0.8 to 1.5 µg/mL.
With `CCCCCCCCC[C@@H]1CC(O)=C(C(=O)CCC)C(=O)O1` [Ex. 2A, (R)-3-butyryl-4-hydroxy-6-nonyl-5,6-dihydro-2H-pyran-2-one] the MIC [2, 18] was 3.2 to 6.4 µM, the MIC [2, 19] was 1 to 2 µg/mL and the CC50 at 48 h (in vitro) was 27 µM.
With `C/C(=C\C(=O)OCCCCCCCCC(=O)O)C[C@@H]1OC[C@H](C[C@@H]2O[C@H]2[C@@H](C)[C@H](C)O)[C@@H](O)[C@H]1O` [mupirocin, reference compound] the MIC [5] was > 256 µg/mL.
With `CCCC(=O)C1=C(O)CC(CCCCCCCC#N)OC1=O` (stereo not shown) [Ex. 19, 8-(5-butyryl-4-hydroxy-6-oxo-3,6-dihydro-2H-pyran-2-yl)octanenitrile] the MIC [2, 18] was 133 to 166 µM, the MIC [2, 19] was 40 to 50 µg/mL and the CC50 at 48 h (in vitro) was > 100 µM.
With `CCCCCCCCC[C@H]1CC(O)=C(C(=O)CCC)C(=O)O1` [Ex. 2B, (S)-3-butyryl-4-hydroxy-6-nonyl-5,6-dihydro-2H-pyran-2-one] the MIC [2, 18] was 1.3 to 1.9 µM, the MIC [2, 19] was 0.4 to 0.6 µg/mL and the CC50 at 48 h (in vitro) was 25 µM.
Work on `CCCCCCCCCCCC1CC(O)=C(C(=O)CCCC)C(=O)O1` (stereo not shown) [Ex. 17, 4-hydroxy-3-pentanoyl-6-undecyl-5,6-dihydro-2H-pyran-2-one] yielded an MIC (S. aureus; [7]) of 16 µg/mL (≈ 45.4 µM), an MIC (S. aureus; [8]) of 8 µg/mL (≈ 22.7 µM) and an MIC (S. aureus; [9]) of 4 µg/mL (≈ 11.3 µM). For the same compound, the MIC (S. aureus; [10]) was 8 µg/mL (≈ 22.7 µM), the MIC (Bacillus cereus) was ≤ 1 µg/mL and the MIC (E. faecium) was 1 µg/mL (≈ 2.84 µM). The MIC (S. epidermidis; [11]) was 0.5 µg/mL (≈ 1.42 µM), the MIC (S. epidermidis; [12]) was 0.5 µg/mL (≈ 1.42 µM) and the MIC (S. epidermidis; [13]) was 0.5 µg/mL (≈ 1.42 µM). The CC50 at 48 h ([3]; HepG2, 48 hours, Table 1) was 12 µM, the CC50 at 48 h ([3]; HepG2, Table 5) was 12 µM and the MIC (E. faecalis; [14]) was 1 µg/mL (≈ 2.84 µM). The MIC (E. faecalis; [15]) was 1 µg/mL (≈ 2.84 µM), the MIC [2, 17] was 0.1 to 0.2 µg/mL and the MIC [2, 18] was 0.3 to 0.6 µM. The MIC [2, 19] was 0.1 to 0.2 µg/mL.
In the case of `CCCCCCCc1cc(O)c(CCCCCC)c(=O)o1` [pseudopyronine B], the antibacterial activities [4] is given as “moderate to poor”.
In the case of `CN(Cc1cnc2nc(N)nc(N)c2n1)c1ccc(C(=O)N[C@@H](CCC(=O)O)C(=O)O)cc1` [Methotrexate], the “absorption in man (%)” value ([1]; in vivo) is listed as 20%.
For `N[C@@H](Cc1ccccc1)C(=O)O` [L-Phenylalanine], the “absorption in man (%)” value [1, 6] is given as 100%.
